In brackets after ≈: the same amount, converted by molar mass. Read-outs that look alike come from different tables or passages of the source.
Test system: yeast Saccharomyces cerevisiae X2180-1B
Test: Fungicidal activity / MIC at 50° C. versus 30° C., yeast survival in YEPD broth pH 3.4
Type: cell-based
Details: for Importance: rating as pasteurisation adjunct
Description: In the table the minimum inhibitory concentration (MIC) is given for each compound as well as the molecular weight (M.W.), the logPoct and a rating of its importance. […] The logPoct, that is the logarithm of the partition coefficient of the relevant compound in octanol and thus a measure of its […], was determined using […]™ software from the CHEMOFFICE ULRA ENHANCED 2000™ software package (version 5.5) that is commercially available from CambridgeSoft.
(§1) YEPD contained glucose, 20 g/l, peptone 20 g/l and yeast extract 10 g/l. Rows of 30 ml tubes containing 10 ml YEPD, pH 3.4, were equilibrated at the required temperature for 7 minutes in a water bath, before inoculation with 10^4 cells/ml of the yeast Saccharomyces cerevisiae X2180-1B. Tubes were held at temperature for 10 minutes before being cooled rapidly in cold water for 5 minutes. Tubes were then incubated for 48 hours at 25° C. to allow surviving yeasts to grow out, and form discrete colonies.
as §1, §1, §1

[1] = Saccharomyces cerevisiae, read-out: MIC50
[2] = Saccharomyces cerevisiae, minimum inhibitory concentration, 50° C., read-out: MIC50

O=C(c1ccccc1)C(O)c1ccccc1 (stereo not shown) [Benzoin]
MIC [1]: 10 mM (≈ 2120 µg/mL) | Importance: 10

CCCCCCCCCCCCC(=O)O [Tridecanoic acid]
MIC [2]: 0.2 mM (≈ 42.9 µg/mL) | Importance: High (High effects compounds, most preferred, generally showed at least a 5 fold decrease in MIC, minimum inhibitory concentration at 50 °C compared with 30° C.)

C=CCCCCCCCCC(=O)OCC [Ethyl 10-undecenoate]
MIC [2]: 50 mM (≈ 10600 µg/mL) | Importance: High (High effects compounds, most preferred, generally showed at least a 5 fold decrease in MIC, minimum inhibitory concentration at 50 °C compared with 30° C.)

CCCCCCCCCCCCCC(=O)OC [Methyl myristate]
MIC [2]: 60 mM (≈ 14500 µg/mL) | Importance: Low

CCCCCCCC(=O)OCCCCC [Amyl octanoate]
MIC [2]: 60 mM (≈ 12900 µg/mL) | Importance: Mod

CCCCCCCCCCCC(=O)OCC [Ethyl laurate]
MIC [2]: 80 mM (≈ 18300 µg/mL) | Importance: Mod

CCCCCC(=O)OCCc1ccccc1 [Phenethyl hexanoate]
MIC [2]: 10 mM (≈ 2200 µg/mL) | Importance: High (High effects compounds, most preferred, generally showed at least a 5 fold decrease in MIC, minimum inhibitory concentration at 50 °C compared with 30° C.)

CCCCCCCCCCCCOC(C)=O [Lauryl acetate]
MIC [2]: 40 mM | Importance: Mod

CCCCCCCCCCC=CC=O [2-Tridecenal]
MIC50 (Saccharomyces cerevisiae, minimum inhibitory concentration, 50° C., given as ppm, read-out: MIC50): < 9.8 µg/mL | MIC [2]: < 0.05 mM | Importance: High (High effects compounds, most preferred, generally showed at least a 5 fold decrease in MIC, minimum inhibitory concentration at 50 °C compared with 30° C.)

CC=CCCCCCCCC(=O)OC [Methyl-9-undecenoate]
MIC [2]: 40 mM (≈ 7930 µg/mL) | Importance: High (High effects compounds, most preferred, generally showed at least a 5 fold decrease in MIC, minimum inhibitory concentration at 50 °C compared with 30° C.)

CCCCCCCOC(=O)CCC [Heptyl butyrate]
MIC [2]: 2 mM (≈ 373 µg/mL) | Importance: High (High effects compounds, most preferred, generally showed at least a 5 fold decrease in MIC, minimum inhibitory concentration at 50 °C compared with 30° C.)

C=CC(C)(CCC=C(C)C)OC(=O)CC (stereo not shown) [Linalyl propionate]
MIC [2]: 20 mM (≈ 4210 µg/mL) | Importance: Mod

CC(=O)OC1CC2CCC1(C)C2(C)C (stereo not shown) [Bornyl acetate]
MIC [2]: 2 mM | Importance: Low

CCCCCOC(=O)CCCCC [Amyl hexanoate]
MIC [2]: 2 mM (≈ 373 µg/mL) | Importance: High (High effects compounds, most preferred, generally showed at least a 5 fold decrease in MIC, minimum inhibitory concentration at 50 °C compared with 30° C.)

CCCC(=O)OC/C=C(/C)CCC=C(C)C [Neryl butyrate]
MIC [2]: 50 mM (≈ 11200 µg/mL) | Importance: Mod

CCCCCCCCCCCCCCCO [Pentadecanol]
MIC [2]: 75 mM (≈ 17100 µg/mL) | Importance: Low

CCCCCCCC(=O)OCCCCCC [Hexyl octanoate]
MIC [2]: 10 mM (≈ 2280 µg/mL) | Importance: Mod

CCCCCCCCCCCCCCC(=O)O [Pantadecanoic acid]
MIC50 (minimum inhibitory concentration, 50° C.): 80 mM | Importance: Low

CCCCCCCCCC(=O)OC [Methyl decanoate]
MIC [2]: 2 mM (≈ 373 µg/mL) | Importance: High (High effects compounds, most preferred, generally showed at least a 5 fold decrease in MIC, minimum inhibitory concentration at 50 °C compared with 30° C.)

methyl decenoate
fungicidal activity at 30° C. (30° C.): no fungicidal activity | fungicidal activity when heated to 50° C. (50° C.): significant fungicidal activity

CCCCCCCCCC(C)=O [2-Undecanone]
MIC [1]: 1 mM (≈ 170 µg/mL) | Importance: High (High effects compounds, most preferred, generally showed at least a 5 fold decrease in MIC, minimum inhibitory concentration at 50 °C compared with 30° C.)

CCCCCCCC(=O)OCCc1ccccc1 [Phenethyl octanoate]
MIC [2]: 40 mM (≈ 9930 µg/mL) | Importance: Mod

CCCCCCCCCCCC(=O)OCCCC [Butyl laurate]
MIC [2]: 100 mM (≈ 25600 µg/mL) | Importance: Low

CCCCCCCCC(=O)OCC [Ethyl nonanoate]
MIC [2]: 10 mM (≈ 1860 µg/mL) | Importance: High (High effects compounds, most preferred, generally showed at least a 5 fold decrease in MIC, minimum inhibitory concentration at 50 °C compared with 30° C.)

Source: patent US6579556B2, “Ambient stable beverage” (Lipton, division of Conopco, Inc., priority 2000, dated 2003)
